Kb data for 20 compounds are collected here from patent US7829563B2, “Aminoamides as orexin antagonists” (Hoffmann-La Roche Inc., priority 2007, dated 2010).

This assay concerns the target T1, human orexin-2 (hOX2) receptors (Homo sapiens, UniProt O43614).
T1 construct: expressed in transfected cells
T1 sequence (O43614 1-444): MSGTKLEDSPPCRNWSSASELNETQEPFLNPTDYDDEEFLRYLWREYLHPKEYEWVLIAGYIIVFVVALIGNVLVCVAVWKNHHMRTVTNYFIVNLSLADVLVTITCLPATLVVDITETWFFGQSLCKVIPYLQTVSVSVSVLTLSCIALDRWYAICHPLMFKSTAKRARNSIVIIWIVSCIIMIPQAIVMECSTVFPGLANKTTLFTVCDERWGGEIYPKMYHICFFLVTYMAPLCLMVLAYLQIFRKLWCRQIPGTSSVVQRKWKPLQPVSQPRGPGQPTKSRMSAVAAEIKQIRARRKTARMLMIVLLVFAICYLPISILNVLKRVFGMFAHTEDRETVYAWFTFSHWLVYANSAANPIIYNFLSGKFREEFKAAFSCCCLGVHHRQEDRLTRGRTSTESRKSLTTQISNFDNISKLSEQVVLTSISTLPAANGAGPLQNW
Kind of assay: Intracellular Ca2+ mobilization assay (FLIPR), antagonism of orexin-A. Format: cell-based. Conditions: CHO(dHFr−) cells stably expressing hOX2; orexin-A at EC80 as agonist; Kb=IC50/(1+[A]/EC50); read-out: Kb (μM) OX2R (human). The protocol:
R^7 and R^8 in scheme 5 are hydrogen, and the other substituents are as described above The compounds were investigated in accordance with the test given hereinafter. Intracellular Ca^2+ Mobilization Assay
The Chinese Hamster Ovary (dHFr−) mutant cell line stably expressing human orexin-1 (hOX1) or human orexin-2 (hOX2) receptors were maintained in Dulbecco's Modified Eagle Medium (1×) with GlutaMax™ 1, 4500 mg/L D-Glucose and Sodium Pyruvate (Catalog No. 31966-021, Invitrogen, Carlsbad, Calif.), 5% dialyzed fetal calf serum (Catalog No. 26400-044), 100 μg/ml penicillin and 100 μg/ml streptomycin. The cells were seeded at 5×10^4 cells/well in the poly-D-lysine treated, 96-well, black/clear-bottomed plates (Catalog No. BD356640, BD Biosciences, Palo Alto, Calif.). 24 h later, the cells were loaded for 1 h at 37° C. with 4 μM Flou-4 acetoxymethyl ester (Catalog No. F-14202, Molecular Probes, Eugene, Oreg.) in FLIPR buffer (1×HBSS, 20 mM HEPES, 2.5 mM Probenecid). Hanks' Balanced Salt Solution (HBSS) (10×) (catalog No. 14065-049) and HEPES (1M) (catalog No. 15630-056) were purchased from Invitrogen, Carlsbad, Calif. Probenecid (250 mM) (catalog No. P8761) was from Sigma, Buchs, Switzerland. The cells were washed five times with FLIPR buffer to remove excess dye and intracellular calcium mobilization, [Ca^2+]i were measured using a Fluorometric Imaging Plate Reader (FLIPR-96, Molecular Devices, Menlo Park, Calif.) as described previously (Malherbe et al., Mol. Pharmacol., 64, 823-832, 2003). Orexin A (catalog No. 1455, Toris Cookson Ltd, Bristol, UK) was used as agonist. Orexin A ([…] stock solution in DMSO) was diluted in FLIPR buffer+0.1% BSA. The EC50 and EC80 values of orexin-A were measured daily from standard agonist concentration-response curves in CHO(dHFr−)-OX1R and —OX2R cell lines. All compounds were dissolved in 100% DMSO. Inhibition curves were determined by addition of 11 concentrations (0.0001-10 μM) of inhibitory compounds and using EC80 value of orexin-A as agonist (a concentration which gave 80% of max agonist response, determined daily). The antagonists were applied 25 min (incubation at 37° C.) before the application of the agonist. Responses were measured as peak increase in fluorescence minus basal, normalized to the maximal stimulatory effect induced by EC80 value of orexin-A or orexin-B. Inhibition curves were fitted according to the Hill equation: y=100/(1+(x/IC50)^nH), where nH=slope factor using Excel-fit 4 software (Microsoft). Kb values were calculated according to the following equation Kb=IC50/(1+[A]/EC50) where A is the concentration of agonist added which is very close to agonist EC80 value, and IC50 and EC50 values were derived from the antagonist inhibition and orexin-A or B agonist curves, respectively.
On the technique in general: Calcium assays in cells follow changes in intracellular calcium, usually with a dye or a luminescent sensor.
For the compound `CNC(=O)[C@H](N[C@@H](CCc1ccc(C(F)(F)F)nc1)c1ccc(Cl)c(OC)c1)c1ccccc1` (racemic) [Example 216, (S,R)-2-[(R,S)-1-(4-Chloro-3-methoxy-phenyl)-3-(6-trifluoromethyl-pyridin-3-yl)-propylamino]-N-methyl-2-phenyl-acetamide], the antagonist equilibrium constant (Kb) is 0.0073 µM.
With `CNC(=O)[C@H](N[C@@H](CCc1ccc(C(F)(F)F)nc1)c1ccc(Cl)c(OC)c1)c1ccc(Cl)cc1` (racemic) [Example 220, (S,R)-2-[(R,S)-1-(4-Chloro-3-methoxy-phenyl)-3-(6-trifluoromethyl-pyridin-3-yl)-propylamino]-2-(4-chloro-phenyl)-N-methyl-acetamide], the Kb came out at 0.0015 µM.
Consider `CNC(=O)[C@H](N[C@H](CCc1ccc(C(F)(F)F)nc1)c1ccc(Cl)c(OC)c1)c1ccc(F)cc1` (racemic) [Example 223, (S,R)-2-[(S,R)-1-(4-Chloro-3-methoxy-phenyl)-3-(6-trifluoromethyl-pyridin-3-yl)-propylamino]-2-(4-fluoro-phenyl)-N-methyl-acetamide], for which the Kb was found to be 0.0171 µM.
Turning to `CNC(=O)[C@H](N[C@@H](CCc1ccc(C(F)(F)F)nc1)c1ccc(Cl)c(OC)c1)c1ccc(F)cc1` (racemic) [Example 224, (S,R)-2-[(R,S)-1-(4-Chloro-3-methoxy-phenyl)-3-(6-trifluoromethyl-pyridin-3-yl)-propylamino]-2-(4-fluoro-phenyl)-N-methyl-acetamide], the Kb was determined as 0.0057 µM.
For the compound `CNC(=O)[C@H](N[C@@H](CCc1ccc(C(F)(F)F)nc1)c1cccc(OC(F)F)c1)c1ccccc1` (racemic) [Example 225, (S,R)-2-[(R,S)-1-(3-Difluoromethoxy-phenyl)-3-(6-trifluoromethyl-pyridin-3-yl)-propylamino]-N-methyl-2-phenyl-acetamide], the antagonist dissociation constant (Kb) was found to be 0.0144 µM.
As for `CNC(=O)[C@H](N[C@H](CCc1ccc(C(F)(F)F)nc1)c1cccc(OC(F)(F)F)c1)c1ccccc1` (racemic) [Example 226, (S,R)—N-Methyl-2-phenyl-2-[(S,R)-1-(3-trifluoromethoxy-phenyl)-3-(6-trifluoromethyl-pyridin-3-yl)-propylamino]-acetamide], the figure is 0.0195 µM; as for `CNC(=O)[C@H](N[C@@H](CCc1ccc(C(F)(F)F)nc1)c1ccc(F)c(C)c1)c1ccccc1` (racemic) [Example 228, (S,R)-2-[(R,S)-1-(4-Fluoro-3-methyl-phenyl)-3-(6-trifluoromethyl-pyridin-3-yl)-propylamino]-N-methyl-2-phenyl-acetamide], 0.0035 µM.
On to `CNC(=O)[C@H](N[C@@H](CCc1ccc(C(F)(F)F)nc1)c1ccc(F)c(OC)c1)c1ccc(Cl)cc1` (racemic) [Example 230, (S,R)-2-(4-Chloro-phenyl)-2-[(R,S)-1-(4-fluoro-3-methoxy-phenyl)-3-(6-trifluoromethyl-pyridin-3-yl)-propylamino]-N-methyl-acetamide], for which the antagonist dissociation constant (Kb) amounted to 0.0117 µM.
`CNC(=O)[C@H](N[C@@H](CCc1ccc(C(F)(F)F)nc1)c1ccc(F)c(OC)c1)c1ccccc1` (racemic) [Example 232, (S,R)-2-[(R,S)-1-(4-Fluoro-3-methoxy-phenyl)-3-(6-trifluoromethyl-pyridin-3-yl)-propylamino]-N-methyl-2-phenyl-acetamide]: the Kb was 0.0085 µM.
For the compound `CNC(=O)[C@H](N[C@@H](CCc1ccc(C(F)(F)F)nc1)c1ccc(OC(F)F)c(OC)c1)c1ccc(Cl)cc1` (racemic) [Example 234, (S,R)-2-(4-Chloro-phenyl)-2-[(R,S)-1-(4-difluoromethoxy-3-methoxy-phenyl)-3-(6-trifluoromethyl-pyridin-3-yl)-propylamino]-N-methyl-acetamide], the Kb was 0.013 µM.
In the case of `CNC(=O)[C@H](N[C@@H](CCc1ccc(C(F)(F)F)nc1)c1ccc(C)c(Cl)c1)c1ccccc1` (racemic) [Example 238, (S,R)-2-[(R,S)-1-(3-Chloro-4-methyl-phenyl)-3-(6-trifluoromethyl-pyridin-3-yl)-propylamino]-N-methyl-2-phenyl-acetamide], the Kb is 0.0196 µM.
The same measure for `CNC(=O)[C@H](N[C@@H](CCc1ccc(C(F)(F)F)nc1)c1ccc(F)c(OC)c1)c1ccc(F)cc1` (racemic) [Example 240, (S,R)-2-[(R,S)-1-(4-Fluoro-3-methoxy-phenyl)-3-(6-trifluoromethyl-pyridin-3-yl)-propylamino]-2-(4-fluoro-phenyl)-N-methyl-acetamide]: 0.0107 µM; for `CNC(=O)[C@H](N[C@H](CCc1ccc(C(F)(F)F)nc1)c1ccc(Cl)c(C)c1)c1ccccc1` (racemic) [Example 243, (S,R)-2-[(S,R)-1-(4-Chloro-3-methyl-phenyl)-3-(6-trifluoromethyl-pyridin-3-yl)-propylamino]-N-methyl-2-phenyl-acetamide]: 0.0122 µM; for `CNC(=O)[C@H](N[C@@H](CCc1ccc(C(F)(F)F)nc1)c1ccc(Cl)c(C)c1)c1ccccc1` (racemic) [Example 244, (S,R)-2-[(R,S)-1-(4-Chloro-3-methyl-phenyl)-3-(6-trifluoromethyl-pyridin-3-yl)-propylamino]-N-methyl-2-phenyl-acetamide]: 0.0145 µM.
The same measure for `CNC(=O)[C@H](N[C@@H](CCc1ccc(C(F)(F)F)nc1)c1ccc(C)c(C)c1)c1ccccc1` (racemic) [Example 251, (S,R)-2-[(R,S)-1-(3,4-Dimethyl-phenyl)-3-(6-trifluoromethyl-pyridin-3-yl)-propylamino]-N-methyl-2-phenyl-acetamide]: 0.0022 µM.
On to `CNC(=O)[C@H](N[C@H](CCc1ccc(C(F)(F)F)nc1)c1ccc(C)c(OC)c1)c1ccccc1` (racemic) [Example 252, (S,R)-2-[(S,R)-1-(3-Methoxy-4-methyl-phenyl)-3-(6-trifluoromethyl-pyridin-3-yl)-propylamino]-N-methyl-2-phenyl-acetamide], for which the antagonist equilibrium constant (Kb) amounted to 0.0024 µM.
For the compound `CNC(=O)[C@H](N[C@@H](CCc1ccc(C(F)(F)F)nc1)c1ccc(C)c(OC)c1)c1ccccc1` (racemic) [Example 253, (S,R)-2-[(R,S)-1-(3-Methoxy-4-methyl-phenyl)-3-(6-trifluoromethyl-pyridin-3-yl)-propylamino]-N-methyl-2-phenyl-acetamide], the Kb is 0.0034 µM.
With `CNC(=O)[C@H](N[C@@H](CCc1ccc(Cl)nc1)c1ccc(F)c(C)c1)c1ccccc1` (racemic) [Example 266, (S,R)-2-[(R,S)-3-(6-Chloro-pyridin-3-yl)-1-(4-fluoro-3-methyl-phenyl)-propylamino]-N-methyl-2-phenyl-acetamide], the antagonist equilibrium constant (Kb) is 0.0175 µM.
Regarding `CNC(=O)[C@H](N[C@H](CCc1ccc(C(F)(F)F)cc1)c1ccc(OC(F)F)c(OC(F)F)c1)c1ccccc1` (racemic) [Example 290, (S,R)-2-[(S,R)-1-(3,4-Bis-difluoromethoxy-phenyl)-3-(4-trifluoromethyl-phenyl)-propylamino]-N-methyl-2-phenyl-acetamide], the Kb came to 0.0536 µM.
On to `CNC(=O)[C@H](N[C@@H](CCc1ccc(Cl)nc1)c1ccc(OC(F)F)c(OC(F)F)c1)c1ccccc1` (racemic) [Example 296, (S,R)-2-[(R,S)-1-(3,4-Bis-difluoromethoxy-phenyl)-3-(6-chloro-pyridin-3-yl)-propylamino]-N-methyl-2-phenyl-acetamide], for which the Kb is 0.013 µM.

The Kb is the affinity of an antagonist, worked out from how it opposes an agonist.
